Results on one compound are retold here after patent publication US7317038B2, “Nerve regeneration promoters containing semaphorin inhibitor as the active ingredient” (Dainippon Sumitomo Pharma Co., Ltd., priority 2000, dated 2008).

Experiment [1] addresses T1, rat semaphorin 6C-AP (Sema6C-AP) (Rattus norvegicus, UniProt Q9WTL3).
T1 construct: a fusion protein of extracellular domain of Sema6C and human placenta-derived alkaline phosphatase
T1 sequence (Q9WTL3 24-635 limits assumed): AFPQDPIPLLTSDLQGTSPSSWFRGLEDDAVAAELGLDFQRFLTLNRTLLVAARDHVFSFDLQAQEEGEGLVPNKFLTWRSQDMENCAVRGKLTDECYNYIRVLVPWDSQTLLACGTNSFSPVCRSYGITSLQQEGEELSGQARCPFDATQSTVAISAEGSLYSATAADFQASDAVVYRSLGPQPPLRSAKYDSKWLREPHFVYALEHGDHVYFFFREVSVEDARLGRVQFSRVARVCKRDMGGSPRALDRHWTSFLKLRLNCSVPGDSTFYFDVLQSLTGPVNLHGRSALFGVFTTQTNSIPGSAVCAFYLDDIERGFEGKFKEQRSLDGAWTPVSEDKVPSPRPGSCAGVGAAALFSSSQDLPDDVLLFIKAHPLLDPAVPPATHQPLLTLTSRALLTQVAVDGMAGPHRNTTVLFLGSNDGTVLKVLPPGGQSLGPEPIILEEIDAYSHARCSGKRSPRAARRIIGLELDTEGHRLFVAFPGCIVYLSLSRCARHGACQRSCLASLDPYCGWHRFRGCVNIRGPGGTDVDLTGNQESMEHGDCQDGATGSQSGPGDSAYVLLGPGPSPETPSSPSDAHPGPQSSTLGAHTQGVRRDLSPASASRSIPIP
Put plainly: Suppression of growth cone collapse activity of Sema6C-AP (chick embryo dorsal root ganglions). It counts as cell-based. As for the experimental part:
The experiment was carried out in a same way as in Example 2 except that rat semaphorin 6C-AP (Sema6C-AP: a fusion protein of extracellular domain of Sema6C and human placenta-derived alkaline phosphatase) was used instead of mouse semaphorin 3A (Sema3A), and dorsal root ganglions excised from 8-day-old chick embryos were used instead of those excised from 7-day-old chick embryos. The collapse rate of growth cone was measured when Sema6C-AP was added one hour after the addition of the compound SPF-3059-1 at various concentrations.

The subject of experiment [2] is spinal cord injury model adult rats. Put plainly: In vivo nerve regeneration after transection of the spinal nerve (cerebral cortex-spinal cord tract). As to conditions: rat; 0.6 μg/day for four consecutive weeks. As for the experimental part:
Male Wister rats (10-week-old) were purchased from Charles River Japan, Inc. and bred under free feeding and water uptake in a dedicated breeding room. They were used in the experiment after about one week of pre-breeding. SPF-3059-1 was prepared to 0.1 mg/ml with PBS. PBS was used as a control. The agent was filled in an osmotic pressure pump (Alzet, model 2004, dosage for four weeks, flow rate 0.25 μl/hr). A cannula filled with the sample solution etc. was connected to the pump and pre-incubated in saline overnight at room temperature.
A rat was intrapenitrially injected with pentbarbital (50 mg/kg). Skin and muscles in dorsal thoracic spinal cord region of the anesthetized rat were incised and the T8-T12 vertebras were exposed. Laminectomy was carried out for the T11 thoracic vertebra under the microscope. A pair of ophthalmologic scissors attached to the manipulator was punctured and inserted across the median line into the depth of 1.5 mm from the duramater surface, and the cerebral cortex-spinal cord pathway was incised and separated. The vertebra opening was filled with a spongel. Cannulation was performed from the T9 vertebra which was perforated with a surgical drill to expose the duramater. The part of the duramater, to which a cannula was to be inserted, was perforated with an injection needle and the silicon tube connected with the pump was inserted therein. […]

For the compound `CC(=O)c1c(C)c(C(=O)C2COc3cc(O)c(O)c(C(=O)O)c3C2=O)cc2c(=O)c3c(C(=O)O)c(O)c(O)cc3oc12` (stereo not drawn) [SPF-3059-1], in experiment [1] (E8 chick embryo dorsal root ganglions, Sema6C-AP added one hour after compound), the “inhibition of growth cone collapse activity of Sema6C-AP (in words)” value was “inhibit the growth cone collapse activities of Sema6C-AP in a concentration-dependent manner”. Besides, in experiment [1] (Sema6C-AP not added), the “collapse rate of growth cones, compound alone” value is “did not affect the rate at all”. Besides, the “nerve-regeneration promoting action after spinal nerve incision (DBA-positive fibers)” value in experiment [2] is “has the nerve-regeneration promoting action”.
